Consider 3 compounds from US6344191B2, “Chemical attractants for moths” (The United States of America as represented by the …, priority 1998, dated 2002).

What all share (test): Field trapping test, baited Trappit dome traps in apple and pear orchards
Assay type in all cases: in vivo
Conditions in all cases: for Numbers captured in traps: Experiment 4, 0.25% acetic acid in drowning solution and/or 1 ml alcohol in cap, unbaited control

Experiment [1] relates to bertha armyworm (Mamestra configurata). How it is done: (§1) Materials and Methods. The Trappit™ dome trap (Agrisense, Fresno, Calif.) was used in all tests. Two hundred ml of a drowning solution was used in the reservoir of all traps. This solution was 200 ml water, 25 μl of detergent, 50 μl yellow, 25 μl blue, and 60 μl red food dyes (McCormick, Hunt Valley, N.J.), and 20 mg clay. Acetic acid, when tested, was added to the drowning solution as a percent of the solution. Alcohols tested were loaded in polyethylene caps (No. 60975D-3, Kimball Glass, Vineland, N.J.) that were impaled on a push pin glued to the inside of the top of the trap. Traps were serviced two or three times per week depending on weather conditions, and the drowning solution with or without acetic acid was replaced weekly. Alcohols in polyethylene caps were replaced monthly.
(§2) All experiments were conducted in commercial apple and pear orchards. Traps were hung from tree branches at 1.5 to 2 m above ground, with 10 m between traps within a block and 10 m between adjacent blocks.
(§3) Experiment Overview. Four trapping experiments were conducted in apple and pear orchards in the Yakima Valley during the summer of 1998. An initial experiment compared captures of pest moths in traps baited with the combination of acetic acid and 3-methyl-1-butanol to acetic acid alone and to fermented molasses solution. The second experiment was a comparison of the attractiveness of the combination of acetic acid and 3-methyl-1-butanol with varying percentages of acetic acid in the drowning solution. The third experiment was a comparison of the attractiveness of the combination of acetic acid and 3-methyl-1-butanol with varying doses of the 3-methyl-1-butanol in the cap. The fourth experiment was a test of possible synergism or enhancement of acetic acid with 3-methyl-1-butanol and acetic acid with 3-methyl-1-pentanol and a comparison of the two alcohols.
(§4) Trap catch data for each species was subjected to an ANOVA and means were separated by Duncan's New Multiple Range Test for the first and fourth experiments. Linear regression was used to analyze trap data from the second and third experiments to determine if their was a significant relationship between concentration (acetic acid) or dose (3-methyl-1-butanol) and captures of moths in traps.
(§5) Experiment 1. Traps were baited (1) with 0.25% acetic acid in the drowning solution, (2) with 0.5% acetic acid in the drowning solution and one ml of 3-methyl-1-butanol in a polyethylene cap, or (3) with 200 ml of a 10% solution of molasses in water. A randomized complete block design was used, with 4 blocks set up in early May. Traps were maintained through May and June and again in August.
(§6) Experiment 2. Traps were all baited with one ml of 3-methyl-1-butanol in a polyethylene cap and with either no acetic acid in the drowning solution or with 0.008, 0.03, 0.125, 0.5, or 2% glacial acetic acid by volume in the 200 ml of drowning solution. A randomized complete block design was used, with 4 blocks set up in late July, with each of the 6 treatments represented within each block. This experiment was maintained through August and early September.
(§7) Experiment 3. Traps were all baited with 0.25% acetic acid in the drowning solution and either 0, 12.5, 25, 50, or 100% 3-methyl-1-butanol in one ml of a mixture of 3-methyl-1-butanol and mineral oil. A randomized complete block design was used with each of the 5 treatments represented within each block. This experiment was set up in late July and was maintained through early September.
(§8) Experiment 4. Traps were either unbaited (control) or were baited with 0.25% acetic acid in the drowning solution (acetic acid), with 0.25% acetic acid in the drowning solution and one ml of 3-methyl-1-butanol in a polyethylene cap, with 0.25% acetic acid in the drowning solution and one ml of 3-methyl-1-pentanol in a polyethylene cap, with one ml of 3-methyl-1-butanol in a cap, or with one ml of 3-methyl-1-pentanol in a cap.

Another experiment has as its system Lacanobia subjuncta. How it is done: as §1, §2, §3, §4, §5, §6, §7, §8
The test system of experiment [2] is spotted cutworm (Xestia c-nigrum). How it is done: as §1, §2, §3, §4, §5
Experiment 4. […]

The mark [3] stands for this setting: Experiment 2, 1 ml 3-methyl-1-butanol in cap, no acetic acid.
Setting [4] is: Experiment 1, 0.25% acetic acid in drowning solution, 200 ml 10% molasses solution.

Take `CC(C)CCO` [3-methyl-1-butanol]: the results for the “Numbers of moths captured in traps” value (in experiment [1] (setting [3]); in the experiment with Lacanobia subjuncta (setting [3])) were “Nearly no” and “nearly no moths”, respectively. Further, the “Numbers captured in traps” value (in experiment [1]; in the experiment with Lacanobia subjuncta; in experiment [2]) was “significantly higher than the unbaited traps” throughout.

Regarding `CCC(C)CCO` (centres unmarked) [3-methyl-1-pentanol], the “Numbers captured in traps” value (in experiment [1]; in the experiment with Lacanobia subjuncta; in experiment [2]) was “significantly higher than the unbaited traps” throughout.

`CC(=O)O` [acetic acid, reference compound]: the “Catches of male or female moths, acetic acid versus molasses” value (in experiment [1] (setting [4]); with Lacanobia subjuncta (setting [4])) was “no difference” throughout. In addition, the “Numbers captured in traps” value (in experiment [1]; in the experiment with Lacanobia subjuncta; in experiment [2]) was “significantly higher than the unbaited traps” throughout. Also, the “Catches of female moths, acetic acid versus molasses” value in experiment [2] (Experiment 1, females, 0.25% acetic acid, 10% molasses solution) is given as “no difference”.
